Reference: the NIST ThermoML archive (doi:10.1016/j.jct.2013.11.036)
± gives the expanded uncertainty stated by the source.

Assay: mn = molality of the nth substance listed, in mol/kg
Settings: Liquid, Constant-volume piezometry

Compound: CCCO [propan-1-ol] + O
- mass density (383.2 K, 3256 kPa, m1 = 7.407): 879.4 ± 1.1 kg/m3
- mass density (383.2 K, 6865 kPa, m1 = 7.407): 881.7 ± 1.1 kg/m3
- mass density (383.2 K, 12651 kPa, m1 = 7.407): 885.3 ± 1.1 kg/m3
- mass density (393.03 K, 3256 kPa, m1 = 14.38): 830.8 ± 1 kg/m3
- mass density (393.03 K, 6453 kPa, m1 = 14.38): 833.7 ± 1 kg/m3
- mass density (393.03 K, 9885 kPa, m1 = 14.38): 836.6 ± 1 kg/m3
- mass density (393.03 K, 13239 kPa, m1 = 14.38): 838.9 ± 1 kg/m3
- mass density (394.81 K, 3472 kPa, m1 = 2.531): 911.1 ± 1.1 kg/m3
- mass density (394.81 K, 7845 kPa, m1 = 2.531): 913.4 ± 1.1 kg/m3
- mass density (394.81 K, 11768 kPa, m1 = 2.531): 915.6 ± 1.1 kg/m3
- mass density (398.15 K, 5000 kPa, m1 = 0.869): 932 ± 1.1 kg/m3
- mass density (398.15 K, 5000 kPa, m1 = 2.465): 912.7 ± 1.1 kg/m3
- mass density (398.15 K, 10000 kPa, m1 = 0.869): 934.6 ± 1.1 kg/m3
- mass density (398.15 K, 10000 kPa, m1 = 2.465): 915.5 ± 1.1 kg/m3
- mass density (398.15 K, 20000 kPa, m1 = 0.869): 939.5 ± 1.2 kg/m3
- mass density (398.15 K, 20000 kPa, m1 = 2.465): 920.8 ± 1.1 kg/m3
- mass density (398.15 K, 30000 kPa, m1 = 0.869): 943.9 ± 1.2 kg/m3
- mass density (398.15 K, 30000 kPa, m1 = 2.465): 925.7 ± 1.2 kg/m3
- mass density (398.15 K, 40000 kPa, m1 = 0.869): 948 ± 1.2 kg/m3
- mass density (398.15 K, 40000 kPa, m1 = 2.465): 930.1 ± 1.2 kg/m3
- mass density (410.72 K, 3923 kPa, m1 = 56.35): 771.4 ± 0.9 kg/m3
- mass density (410.72 K, 10787 kPa, m1 = 56.35): 780.5 ± 1 kg/m3
- mass density (423.15 K, 5000 kPa, m1 = 0.869): 909.2 ± 1.1 kg/m3
- mass density (423.15 K, 5000 kPa, m1 = 2.465): 888.1 ± 1.1 kg/m3
- mass density (423.15 K, 10000 kPa, m1 = 0.869): 912.1 ± 1.1 kg/m3
- mass density (423.15 K, 10000 kPa, m1 = 2.465): 891.4 ± 1.1 kg/m3
- mass density (423.15 K, 20000 kPa, m1 = 0.869): 917.6 ± 1.1 kg/m3
- mass density (423.15 K, 20000 kPa, m1 = 2.465): 897.5 ± 1.1 kg/m3
- mass density (423.15 K, 30000 kPa, m1 = 0.869): 922.6 ± 1.2 kg/m3
- mass density (423.15 K, 30000 kPa, m1 = 2.465): 903.1 ± 1.1 kg/m3
- mass density (423.15 K, 40000 kPa, m1 = 0.869): 927 ± 1.2 kg/m3
- mass density (423.15 K, 40000 kPa, m1 = 2.465): 908 ± 1.2 kg/m3
- mass density (423.61 K, 3432 kPa, m1 = 14.38): 797.3 ± 1 kg/m3
- mass density (423.61 K, 6453 kPa, m1 = 14.38): 800.5 ± 1 kg/m3
- mass density (423.61 K, 10042 kPa, m1 = 14.38): 804.1 ± 1 kg/m3
- mass density (423.61 K, 12827 kPa, m1 = 14.38): 806.4 ± 1 kg/m3
- mass density (426.33 K, 3668 kPa, m1 = 2.531): 880.3 ± 1.1 kg/m3
- mass density (426.33 K, 6865 kPa, m1 = 2.531): 882.1 ± 1.1 kg/m3
- mass density (426.33 K, 10787 kPa, m1 = 2.531): 884.4 ± 1.1 kg/m3
- mass density (427.06 K, 4001 kPa, m1 = 7.407): 834.6 ± 1 kg/m3
- mass density (427.06 K, 6453 kPa, m1 = 7.407): 836.9 ± 1 kg/m3
- mass density (427.06 K, 10375 kPa, m1 = 7.407): 839.8 ± 1 kg/m3
- mass density (448.15 K, 5000 kPa, m1 = 0.869): 883 ± 1.1 kg/m3
- mass density (448.15 K, 5000 kPa, m1 = 2.465): 860.5 ± 1.1 kg/m3
- mass density (448.15 K, 10000 kPa, m1 = 0.869): 886.4 ± 1.1 kg/m3
- mass density (448.15 K, 10000 kPa, m1 = 2.465): 864.4 ± 1.1 kg/m3
- mass density (448.15 K, 20000 kPa, m1 = 0.869): 892.7 ± 1.1 kg/m3
- mass density (448.15 K, 20000 kPa, m1 = 2.465): 871.5 ± 1.1 kg/m3
- mass density (448.15 K, 30000 kPa, m1 = 0.869): 898.3 ± 1.2 kg/m3
- mass density (448.15 K, 30000 kPa, m1 = 2.465): 877.9 ± 1.1 kg/m3
- mass density (448.15 K, 40000 kPa, m1 = 0.869): 903.2 ± 1.2 kg/m3
- mass density (448.15 K, 40000 kPa, m1 = 2.465): 883.5 ± 1.2 kg/m3
- mass density (457.85 K, 3589 kPa, m1 = 14.38): 754.1 ± 0.9 kg/m3
- mass density (457.85 K, 8198 kPa, m1 = 14.38): 760.4 ± 0.9 kg/m3
- mass density (457.85 K, 13141 kPa, m1 = 14.38): 766.1 ± 1 kg/m3
- mass density (463.81 K, 4805 kPa, m1 = 7.407): 790.8 ± 1 kg/m3
- mass density (463.81 K, 7355 kPa, m1 = 7.407): 793.5 ± 1 kg/m3
- mass density (463.81 K, 10787 kPa, m1 = 7.407): 796.8 ± 1 kg/m3
- mass density (472.74 K, 3668 kPa, m1 = 2.531): 826.7 ± 1 kg/m3
- mass density (472.74 K, 6531 kPa, m1 = 2.531): 829.7 ± 1 kg/m3
- mass density (472.74 K, 10297 kPa, m1 = 2.531): 832.6 ± 1 kg/m3
- mass density (486.26 K, 7512 kPa, m1 = 56.35): 668.9 ± 0.8 kg/m3
- mass density (486.26 K, 11278 kPa, m1 = 56.35): 680.2 ± 0.9 kg/m3
- mass density (500.33 K, 4982 kPa, m1 = 2.531): 790 ± 1 kg/m3
- mass density (500.33 K, 7100 kPa, m1 = 2.531): 792.6 ± 1 kg/m3
- mass density (500.33 K, 9316 kPa, m1 = 2.531): 794.5 ± 1 kg/m3
- mass density (501.66 K, 4491 kPa, m1 = 14.38): 685 ± 0.9 kg/m3
- mass density (501.66 K, 6943 kPa, m1 = 14.38): 691.7 ± 0.9 kg/m3
- mass density (501.66 K, 10415 kPa, m1 = 14.38): 699.7 ± 0.9 kg/m3
- mass density (501.66 K, 14298 kPa, m1 = 14.38): 706.5 ± 0.9 kg/m3
- mass density (504.03 K, 4805 kPa, m1 = 7.407): 730.7 ± 0.9 kg/m3
- mass density (504.03 K, 7669 kPa, m1 = 7.407): 735.5 ± 0.9 kg/m3
- mass density (504.03 K, 9807 kPa, m1 = 7.407): 739.6 ± 0.9 kg/m3
- mass density (504.03 K, 10866 kPa, m1 = 7.407): 741.9 ± 0.9 kg/m3
- mass density (536.99 K, 10160 kPa, m1 = 56.35): 558.4 ± 0.7 kg/m3
- mass density (536.99 K, 11140 kPa, m1 = 56.35): 566.4 ± 0.9 kg/m3
- mass density (536.99 K, 11591 kPa, m1 = 56.35): 573.2 ± 1.7 kg/m3
- mass density (537.32 K, 9885 kPa, m1 = 14.38): 619.3 ± 0.8 kg/m3
- mass density (537.32 K, 10611 kPa, m1 = 14.38): 628.3 ± 0.8 kg/m3
- mass density (537.32 K, 14298 kPa, m1 = 14.38): 642.1 ± 0.8 kg/m3
- mass density (538.96 K, 7433 kPa, m1 = 2.531): 728.6 ± 0.9 kg/m3
- mass density (538.96 K, 8649 kPa, m1 = 2.531): 731.3 ± 0.9 kg/m3
- mass density (538.96 K, 11023 kPa, m1 = 2.531): 736.1 ± 0.9 kg/m3
- mass density (543.97 K, 7335 kPa, m1 = 7.407): 653.7 ± 0.8 kg/m3
- mass density (543.97 K, 10532 kPa, m1 = 7.407): 666.5 ± 0.9 kg/m3
- mass density (543.97 K, 12749 kPa, m1 = 7.407): 673.5 ± 0.9 kg/m3
- mass density (574.64 K, 11886 kPa, m1 = 56.35): 322.1 ± 1 kg/m3
- mass density (574.64 K, 13082 kPa, m1 = 56.35): 409.5 ± 1 kg/m3
- mass density (574.64 K, 14004 kPa, m1 = 56.35): 441.1 ± 0.8 kg/m3
- mass density (574.64 K, 14509 kPa, m1 = 56.35): 456.5 ± 0.7 kg/m3
- mass density (574.64 K, 15043 kPa, m1 = 56.35): 468 ± 0.7 kg/m3
- mass density (575.95 K, 11768 kPa, m1 = 14.38): 437.4 ± 3.9 kg/m3
- mass density (575.95 K, 11886 kPa, m1 = 14.38): 475.9 ± 4 kg/m3
- mass density (575.95 K, 13317 kPa, m1 = 14.38): 509.3 ± 0.7 kg/m3
- mass density (575.95 K, 13729 kPa, m1 = 14.38): 521.1 ± 0.8 kg/m3
- mass density (577.86 K, 11717 kPa, m1 = 2.531): 643.6 ± 2.2 kg/m3
- mass density (577.86 K, 11768 kPa, m1 = 2.531): 652.5 ± 2.2 kg/m3
- mass density (577.86 K, 12160 kPa, m1 = 2.531): 656.7 ± 0.9 kg/m3
- mass density (582.08 K, 12239 kPa, m1 = 7.407): 540 ± 0.8 kg/m3
- mass density (582.08 K, 12866 kPa, m1 = 7.407): 557.8 ± 0.8 kg/m3
- mass density (582.08 K, 13670 kPa, m1 = 7.407): 567.6 ± 0.8 kg/m3
- mass density (582.08 K, 14377 kPa, m1 = 7.407): 576.7 ± 0.8 kg/m3
